From patent US4521335A, “Aglycone and pseudo-aglycones of the AAD 216 antibiotics” (SmithKline Beckman Corporation, priority 1984, dated 1985)
Converted amounts (≈) assume the structure as drawn.

What was measured:
[1] = system: Staph. aureus SK & F 2614; assay: MIC, standard microtiter assay; assay type: cell-based; details: Staphylococcus aureus
[2] = system: Strep. faecalis SK & F 34358; assay: MIC, standard microtiter assay; assay type: cell-based; details: Enterococcus faecalis
[3] = system: B. fragilis SK & F 3060; assay: MIC, standard microtiter assay; assay type: cell-based; details: Bacteroides fragilis
[4] = system: Staph. aureus SK & F 2591; assay: MIC, standard microtiter assay; assay type: cell-based; details: Staphylococcus aureus
[5] = system: Staph. aureus SK & F 2616; assay: MIC, standard microtiter assay; assay type: cell-based; details: Staphylococcus aureus
[6] = system: Staph. aureus SK & F 2590; assay: MIC, standard microtiter assay; assay type: cell-based; details: Staphylococcus aureus
[7] = system: inoculum (ileal or cecal cannula filtrate); assay: swine in vitro model, growth promotant activity; details: experiment I, 5 hours, 37° C.; for GLU (% Control): glucose; for LAC (% Control): lactic acid; for LYS (% Control): lysine; for VFA (% Control): total volatile fatty acids
[8] = system: Fusobacterium nucleatum ATCC 25586; assay: MIC, standard microtiter assay; assay type: cell-based
[9] = system: Staph. aureus SK & F 675; assay: MIC, standard microtiter assay; assay type: cell-based; details: Staphylococcus aureus
[10] = system: Staph. epidermidis SK & F 2479; assay: MIC, standard microtiter assay; assay type: cell-based; details: Staphylococcus epidermidis
[11] = system: Staph. aureus SK & F 2594; assay: MIC, standard microtiter assay; assay type: cell-based; details: Staphylococcus aureus
[12] = system: Staph. aureus SK & F 2596; assay: MIC, standard microtiter assay; assay type: cell-based; details: Staphylococcus aureus
[13] = system: Staph. aureus SK & F 209P; assay: MIC, standard microtiter assay; assay type: cell-based; details: Staphylococcus aureus
[14] = system: Staph. aureus SK & F 2678; assay: MIC, standard microtiter assay; assay type: cell-based; details: Staphylococcus aureus
[15] = system: Staph. aureus SK & F 2743; assay: MIC, standard microtiter assay; assay type: cell-based; details: Staphylococcus aureus
[16] = system: Staph. aureus SK & F 2776; assay: MIC, standard microtiter assay; assay type: cell-based; details: Staphylococcus aureus
[17] = system: C. perfringens SK & F 2769; assay: microbe, parasite or virus in culture; assay type: cell-based; details: Clostridium perfringens
[18] = system: Staph. aureus SK & F 674; assay: MIC, standard microtiter assay; assay type: cell-based; details: Staphylococcus aureus
[19] = system: Staph. epidermidis SK & F 651; assay: MIC, standard microtiter assay; assay type: cell-based; details: Staphylococcus epidermidis
[20] = system: E. coli SK & F 12140; assay: MIC, standard microtiter assay; assay type: cell-based; details: Escherichia coli
[21] = system: Staph. aureus SK & F 2680; assay: MIC, standard microtiter assay; assay type: cell-based; details: Staphylococcus aureus
[22] = system: Listeria monocytogenes SK & F 2255; assay: MIC, standard microtiter assay; assay type: cell-based
[23] = system: Staph. aureus SK & F 2677; assay: MIC, standard microtiter assay; assay type: cell-based; details: Staphylococcus aureus
[24] = system: Strep. faecilis HH34358; assay: MIC, standard microtiter assay; assay type: cell-based
[25] = system: Salmonella gallinarum SK & F BC595; assay: microbe, parasite or virus in culture; assay type: cell-based; details: Salmonella enterica
[26] = system: Staph. aureus SK & F 2615; assay: MIC, standard microtiter assay; assay type: cell-based; details: Staphylococcus aureus
[27] = system: Pseudomonas aeruginosa HH63; assay: MIC, standard microtiter assay; assay type: cell-based
[28] = system: C. perfringens MCP-2; assay: microbe, parasite or virus in culture; assay type: cell-based; details: Clostridium perfringens
[29] = system: Proteus morgani SK & F 179; assay: MIC, standard microtiter assay; assay type: cell-based
[30] = system: Staph. epidermidis SK & F 2265; assay: MIC, standard microtiter assay; assay type: cell-based; details: Staphylococcus epidermidis
[31] = system: Clostridium perfringens MCP-1; assay: microbe, parasite or virus in culture; assay type: cell-based; details: MCP1
[32] = system: Staph. aureus SK & F 2736; assay: MIC, standard microtiter assay; assay type: cell-based; details: Staphylococcus aureus
[33] = system: Staph. aureus SK & F 2621; assay: MIC, standard microtiter assay; assay type: cell-based; details: Staphylococcus aureus

Work on `CN[C@H](CC(C)C)C(=O)N[C@H]1C(=O)N[C@@H](CC(N)=O)C(=O)N[C@H]2C(=O)N[C@H]3C(=O)N[C@H](C(=O)N[C@H](C(=O)O)c4cc(O)cc(O)c4-c4cc3ccc4O)[C@H](O)c3ccc(c(Cl)c3)Oc3cc2cc(c3O[C@@H]2O[C@H](CO)[C@@H](O)[C@H](O)[C@H]2O[C@H]2C[C@](C)(N)[C@H](O)[C@H](C)O2)Oc2ccc(cc2Cl)[C@H]1O` [Vancomycin, vancomycin] yielded an MIC [1] of 1.6 µg/mL (≈ 1.1 µM), an MIC [2] of 3.1 µg/mL (≈ 2.14 µM) and an MIC [3] of 32 µg/mL (≈ 22.1 µM). For the same compound, the MIC [4] was 1.6 µg/mL (≈ 1.1 µM), the MIC [5] was 0.8 µg/mL (≈ 0.552 µM) and the MIC [6] was 1.6 µg/mL (≈ 1.1 µM). The “GLU (% Control)” value ([7]; 1.67 ppm) was 100 % Control, the “LAC (% Control)” value ([7]; 1.67 ppm) was 99 % Control and the “LYS (% Control)” value ([7]; 1.67 ppm) was 83 % Control. For the same compound, the “VFA (% Control)” value ([7]; 1.67 ppm) was 92 % Control, the “GLU (% Control)” value ([7]; 16.67 ppm) was 189 % Control and the “LAC (% Control)” value ([7]; 16.67 ppm) was 59 % Control. The “LYS (% Control)” value ([7]; 16.67 ppm) was 42 % Control, the “VFA (% Control)” value ([7]; 16.67 ppm) was 280 % Control and the “GLU (% Control)” value ([7]; 166.67 ppm) was 190 % Control. The “LAC (% Control)” value ([7]; 166.67 ppm) was 64 % Control, the “LYS (% Control)” value ([7]; 166.67 ppm) was 48 % Control and the “VFA (% Control)” value ([7]; 166.67 ppm) was 250 % Control. For the same compound, the MIC ([8]; Fusobacterium nucleatum, ATCC25586) was 32 µg/mL (≈ 22.1 µM), the MIC ([8]; Table F, Fusobacterium nucleatum ATCC 25586) was 32 µg/mL (≈ 22.1 µM) and the MIC ([9]; Table C, Methicillin Resistant) was 1.6 µg/mL (≈ 1.1 µM). For the same compound, the MIC ([9]; Table E) was 3.1 µg/mL (≈ 2.14 µM), the MIC ([10]; Table A) was 1.6 µg/mL (≈ 1.1 µM) and the MIC ([10]; Table E) was 3.1 µg/mL (≈ 2.14 µM). For the same compound, the MIC [11] was 1.6 µg/mL (≈ 1.1 µM), the MIC [12] was 3.1 µg/mL (≈ 2.14 µM) and the MIC [13] was 1.6 µg/mL (≈ 1.1 µM). It also gave an MIC [14] of 1.6 µg/mL (≈ 1.1 µM), an MIC [15] of 1.6 µg/mL (≈ 1.1 µM) and an MIC [16] of 1.6 µg/mL (≈ 1.1 µM). For the same compound, the MIC [17] was 0.5 µg/mL (≈ 0.345 µM), the MIC [18] was 1.6 µg/mL (≈ 1.1 µM) and the MIC ([19]; Table A, Staph. epidermidis SK & F 651) was 1.6 µg/mL (≈ 1.1 µM). It also gave an MIC ([19]; Table E, Staph. epidermidis SK & F 651, first entry) of 3.1 µg/mL (≈ 2.14 µM), an MIC ([19]; Table E, Staph. epidermidis SK & F 651, second entry) of 3.1 µg/mL (≈ 2.14 µM) and an MIC [20] greater than 100 µg/mL. For the same compound, the MIC [21] was 1.6 µg/mL (≈ 1.1 µM), the MIC ([22]; Table A) was 1.6 µg/mL (≈ 1.1 µM) and the MIC ([22]; Table E) was 0.8 µg/mL (≈ 0.552 µM). For the same compound, the MIC [23] was 1.6 µg/mL (≈ 1.1 µM), the MIC [24] was 3.1 µg/mL (≈ 2.14 µM) and the MIC [25] was 25 µg/mL (≈ 17.3 µM). It also gave an MIC [26] of 3.1 µg/mL (≈ 2.14 µM), an MIC [27] greater than 100 µg/mL and an MIC ([28]; MCP2, Table D, Anaerobes) of 0.5 µg/mL (≈ 0.345 µM). It also gave an MIC ([28]; MCP2, Table F) of 2 µg/mL (≈ 1.38 µM), an MIC [29] greater than 100 µg/mL and an MIC [30] of 3.1 µg/mL (≈ 2.14 µM). For the same compound, the MIC [31] was 0.5 µg/mL (≈ 0.345 µM), the MIC [32] was 1.6 µg/mL (≈ 1.1 µM) and the MIC [33] was 1.6 µg/mL (≈ 1.1 µM).
